Results reported in patent US20070088086A1, “Method of using synthetic L-Se-methylselenocysteine as a nutriceutical and a method of its synthesis” (PharmaSe, Incorporated, priority 1999, published 2007).

Legend:
rats = settings: acute toxicity, reported (Spallholz, 1994); cited from earlier work
[1] = In vitro lucigenin chemiluminescence (CL) assay of superoxide generation in the presence of GSH
Method: Methylseleninic acid (CH3SeOOH) was a dissolved in distilled water. Using a Rannin micropipette, aliquots were added directly to 1.0 ml of a buffered cocktail solution. The buffered cocktail solution was comprised of lucigenin (20 μg/ml), reduced glutathione (GSH) (4 mg/ml), and either sodium borate (0.05M) or sodium phosphate (0.05M), all purchased from Sigma Chemical Co. Two different buffered cocktail solutions were employed: the cocktail containing sodium borate was used for experiments at pH 9.2, which is optimum for the generation, detection and quenching of selenium catalyzed superoxide; and the cocktail containing sodium phosphate was used for experiments at pH 7.4, which is reflective of physiological conditions. One ml of the cocktail solution was added to a 10×50 mm polypropylene tube for use in the chemiluminescence (CL) assay. Chemiluminescence, using lucigenin as the detector of superoxide, was counted in repetitive integrated 30 second increments over time using a Los Alamos Diagnostics (Model 535) chemiluminometer, to which was attached a LKB Model 2209 circulating water bath that held the tube at 36° C. All chemical test assays and controls were performed by the addition of methylseleninic acid directly to the luminometer test tube in the counting chamber. Superoxide dismutase, SOD, purchased from Sigma Chemical Co., was added to the test tube prior to the addition of the methylseleninic acid and used to quench the chemiluminescent reactions.
The complete chemiluminescence cocktail (containing buffer, lucigenin and GSH) produced very low, yet detectable amounts of background chemiluminescence at both a pH of 9.2 and 7.4. This was most likely due to the ambient spontaneous oxidation of GSH, but was not significant to the tests performed. […] Thus the chemiluminescence produced and quantitated in these assays can be attributable to the generation of superoxide. […] The chemiluminescence generated by selenoate catalysis may be used to quantitatively approximate the amount of catalytic selenium present.

colon carcinogenisis = settings: dietary 1.0-2.0 ppm; cited from earlier work
[2] = tested on: lung, cholorectal and prostate cancer; settings: dietary supplement up to 200 μg/Se/day more than that found in foods; cited from earlier work
cells in culture = settings: cited from earlier work
[3] = Acute toxicity in a mouse (FIG. 3); settings: in vivo
Method: FIG. 3 is a graphic comparison showing the acute toxicity of L-Se-methylselenocysteine in a mouse versus the acute toxicity of selenomethionine in rats.
(§1) FIG. 1 illustrates a comparison between L-Se-methylselenocysteine and L-selenomethionine, and their effect on the growth of normal rabbit fibroblasts. Tests were performed at varying concentrations of L-Se-methylselenocysteine and L-selenomethionine over a three-day period. The amount of cellular growth, as measured by DNA synthesis, that could be stimulated by calf serum at the end of this period was assessed by the addition of tritiated thymidine.

human cancer cells = test: Toxicity to cancer cells, same protocol as normal cells (FIG. 2); type: cell-based; settings: compared with selenomethionine
Method: FIG. 2 is a graphic comparison showing that L-Se-methylselenocysteine is more toxic to human cancer cells than L-selenomethionine.
as §1

[4] = tested on: normal rabbit fibroblasts; test: Growth of normal rabbit fibroblasts, DNA synthesis by tritiated thymidine (FIG. 1); type: cell-based; settings: three-day period, compared with selenomethionine
Method: FIG. 1 is a graphic comparison between L-Se-methylselenocysteine and L-selenomethionine and their effect on the growth of normal rabbit fibroblasts.
as §1

[5] = Solubility of the obtained amino acid in solvents; type: physicochemical
Source text: It is contemplated that ion exchange chromatography may be used to purify the amino acid. It is also possible that, on a larger scale, L-Se-methylselenocysteine may be crystallized. […] Accordingly, ethanol may be one likely crystallization solvent.

[6] = selenol or thiol group; cited from earlier work
[7] = tested on: pre-neoplastic and tumor cell lines; settings: cited from earlier work
mammary tumors = settings: 1 and 2 ppm in rats' diets; cited from earlier work

In the case of `C[Se]CC[C@H](N)C(=O)O` [L-selenomethionine], the LD50 (rats) is listed as 4.25 mg/kg, the “superoxide generation / chemiluminescence in the in vitro CL assay” value ([1]; pH not stated) is listed as “do not generate superoxide” and the “effect on the promotional stages of rat colon carcinogenisis” value (colon carcinogenisis) is listed as “inhibitory effect”. For the same molecule, the “cancer incidence in humans” value [2] was “reduce the incidence of lung, cholorectal and prostate cancer”.
In the case of `O=[Se](O)O` [selenite], the induction of apoptosis (cells in culture) is given as “induces DNA ladders and apoptosis”.
For `C[Se]C[C@H](N)C(=O)O` [L-Se-methylselenocysteine], the LD50 [3] was 8 mg/kg, the “superoxide generation / chemiluminescence in the in vitro CL assay” value ([1]; pH not stated) was “do not generate superoxide” and the “toxicity to cancer cells” value (human cancer cells) was “more toxic to cancer cells”. For the same molecule, the “toxicity to normal cells (growth, DNA synthesis)” value [4] was “less toxic to normal cells”, the solubility ([5]; in ethanol) was “sparingly soluble” and the solubility ([5]; in methanol) was “fairly soluble”. The solubility ([5]; in water) was “soluble”.
For `C[Se](=O)O` [methylseleninic acid, Methylseleninic acid], the “lowest level at which chemiluminescence (superoxide generation) could be detected” value ([1]; FIG. 4, GSH reduction) was 0.56 nanomoles of selenium, the “quenching of chemiluminescence by SOD” value ([1]; pH 7.4, 100 units of SOD) was “quenched most of the chemiluminescence activity” and the chemiluminescence ([1]; pH 7.4, complete cocktail with GSH and lucigenin) was “produced chemiluminescence”. The “quenching of chemiluminescence by SOD” value ([1]; pH 9.2, 100 units of SOD added prior) was “quenched an initial burst of chemiluminescence activity”, the “superoxide generation (chemiluminescence)” value ([1]; pH 9.2, complete cocktail with GSH and lucigenin) was “generated superoxide” and the “chemiluminescence with lucigenin alone” value ([1]; without GSH, pH 9.2 and 7.4) was “produced no additional chemiluminescence”. For the same molecule, the “chemiluminescence with GSH alone” value ([1]; without lucigenin, pH 9.2 and 7.4) was “produced no additional chemiluminescence”.
For `N[C@@H](CS)C(=O)O` [cysteine], the pKa [6] is given as 8-9.
For `C[Se]C[C@H](N)C(=O)O` (racemic) [Se-methylselenocysteine], the “anticancer effects (cell morphology, cell number, DNA strand breaks)” value [7] is listed as “beneficial anticancer effects” and the “appearance of palpable mammary tumors” value (mammary tumors) is listed as “decreases the appearance of palpable mammary tumors”.
For `N[C@@H](C[SeH])C(=O)O` [selenocysteine], the pKa [6] is given as 5.25.
With `CS` [methylthiol] the “quenching of chemiluminescence by SOD” value ([1]; pH not stated) was “SOD did not significantly quench the chemiluminescence” and the “superoxide generation / chemiluminescence in the in vitro CL assay” value ([1]; pH not stated) was “only a fraction of the amount of chemiluminescence as compared to methylselenol”.
For `C[SeH]` [methylselenol], the “superoxide generation / chemiluminescence in the in vitro CL assay” value ([1]; pH not stated) was “very active redox compound producing superoxide”.
